# Measured values reported in ChEMBL document CHEMBL1152560, “Substituted 2-arylbenzothiazoles as kinase inhibitors: hit-to-lead optimization” (Bioorg Med Chem, 2009).
# What was measured:
# [1] = biological target: Eukaryotic translation initiation factor 2-alpha kinase 1 (Homo sapiens) (UniProt Q9BQI3); assay: Residual activity of HRI at 10 uM by microplate scintillation counting
# [2] = biological target: Death-associated protein kinase 1 (Homo sapiens) (UniProt P53355); assay: Residual activity of DAPK1 at 0.1 uM by microplate scintillation counting
# Sequence of Death-associated protein kinase 1 (Homo sapiens) (P53355 whole entry, looked up, the tested form may be a part): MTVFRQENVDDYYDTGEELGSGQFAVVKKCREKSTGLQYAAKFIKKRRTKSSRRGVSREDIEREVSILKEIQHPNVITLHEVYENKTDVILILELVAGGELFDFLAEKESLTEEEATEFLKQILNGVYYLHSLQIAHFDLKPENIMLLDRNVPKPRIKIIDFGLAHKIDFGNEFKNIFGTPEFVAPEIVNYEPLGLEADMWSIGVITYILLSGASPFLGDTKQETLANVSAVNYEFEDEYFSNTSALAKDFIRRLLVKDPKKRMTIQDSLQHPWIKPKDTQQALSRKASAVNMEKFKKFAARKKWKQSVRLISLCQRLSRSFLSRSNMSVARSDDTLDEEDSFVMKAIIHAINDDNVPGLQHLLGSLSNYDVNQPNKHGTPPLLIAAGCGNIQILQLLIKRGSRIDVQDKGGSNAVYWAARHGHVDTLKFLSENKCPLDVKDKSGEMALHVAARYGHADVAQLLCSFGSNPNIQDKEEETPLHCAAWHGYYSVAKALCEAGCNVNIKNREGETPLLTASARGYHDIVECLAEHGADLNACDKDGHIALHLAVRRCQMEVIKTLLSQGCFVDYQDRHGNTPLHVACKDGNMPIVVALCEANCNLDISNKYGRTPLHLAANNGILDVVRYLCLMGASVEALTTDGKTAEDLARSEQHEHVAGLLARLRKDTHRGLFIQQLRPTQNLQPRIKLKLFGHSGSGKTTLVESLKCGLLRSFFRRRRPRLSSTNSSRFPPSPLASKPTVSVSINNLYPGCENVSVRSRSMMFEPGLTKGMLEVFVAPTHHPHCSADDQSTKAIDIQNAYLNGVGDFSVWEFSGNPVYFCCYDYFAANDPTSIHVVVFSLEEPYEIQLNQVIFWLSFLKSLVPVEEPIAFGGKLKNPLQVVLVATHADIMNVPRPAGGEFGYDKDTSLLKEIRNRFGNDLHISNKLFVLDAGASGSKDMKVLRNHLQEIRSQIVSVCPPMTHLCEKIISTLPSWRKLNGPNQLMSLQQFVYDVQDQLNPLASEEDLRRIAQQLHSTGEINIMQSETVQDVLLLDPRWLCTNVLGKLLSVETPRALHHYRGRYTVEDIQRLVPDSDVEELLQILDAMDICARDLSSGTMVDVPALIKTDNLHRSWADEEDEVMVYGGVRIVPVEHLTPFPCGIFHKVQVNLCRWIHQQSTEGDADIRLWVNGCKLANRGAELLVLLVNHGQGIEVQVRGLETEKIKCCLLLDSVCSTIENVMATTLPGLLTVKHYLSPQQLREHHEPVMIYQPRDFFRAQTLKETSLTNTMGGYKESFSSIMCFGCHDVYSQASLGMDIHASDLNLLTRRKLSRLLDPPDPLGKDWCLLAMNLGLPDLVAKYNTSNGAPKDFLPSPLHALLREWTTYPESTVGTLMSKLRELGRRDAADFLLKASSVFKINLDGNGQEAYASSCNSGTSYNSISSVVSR
# [3] = biological target: LIM domain kinase 1 (Homo sapiens) (UniProt P53667); assay: Residual activity of LIMK1 at 1 uM by microplate scintillation counting
# Sequence of LIM domain kinase 1 (Homo sapiens) (P53667 whole entry, looked up, the tested form may be a part): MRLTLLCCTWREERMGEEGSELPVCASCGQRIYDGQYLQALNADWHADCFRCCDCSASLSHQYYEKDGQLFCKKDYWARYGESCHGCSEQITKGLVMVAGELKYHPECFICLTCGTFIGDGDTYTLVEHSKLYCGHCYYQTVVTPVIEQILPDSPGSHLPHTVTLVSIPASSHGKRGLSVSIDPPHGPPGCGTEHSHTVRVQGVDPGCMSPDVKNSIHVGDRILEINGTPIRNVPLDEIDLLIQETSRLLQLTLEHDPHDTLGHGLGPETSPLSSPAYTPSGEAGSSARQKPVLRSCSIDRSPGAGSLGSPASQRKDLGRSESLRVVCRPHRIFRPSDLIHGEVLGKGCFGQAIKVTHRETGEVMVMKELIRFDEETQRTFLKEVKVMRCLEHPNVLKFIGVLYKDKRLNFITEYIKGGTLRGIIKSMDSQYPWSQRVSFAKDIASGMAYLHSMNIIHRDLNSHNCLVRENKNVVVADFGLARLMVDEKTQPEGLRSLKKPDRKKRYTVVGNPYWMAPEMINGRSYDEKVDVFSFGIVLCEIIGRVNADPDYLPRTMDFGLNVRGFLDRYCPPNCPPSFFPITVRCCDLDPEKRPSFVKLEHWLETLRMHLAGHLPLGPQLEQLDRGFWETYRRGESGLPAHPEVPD
# [4] = biological target: Ephrin type-A receptor 4 (Homo sapiens) (UniProt P54764); assay: Residual activity of EPHA4 at 0.1 uM by microplate scintillation counting
# [5] = biological target: Serine/threonine-protein kinase PAK 2 (Homo sapiens) (UniProt Q13177); assay: Residual activity of PAK2 at 1 uM by microplate scintillation counting
# [6] = biological target: Leukocyte tyrosine kinase receptor (Homo sapiens) (UniProt P29376); assay: Residual activity of LTK at 1 uM by microplate scintillation counting
# [7] = biological target: T1, Protein kinase C iota type (Homo sapiens) (UniProt P41743); assay: Residual activity of PKCiota at 1 uM by microplate scintillation counting
# T1 sequence (whole entry): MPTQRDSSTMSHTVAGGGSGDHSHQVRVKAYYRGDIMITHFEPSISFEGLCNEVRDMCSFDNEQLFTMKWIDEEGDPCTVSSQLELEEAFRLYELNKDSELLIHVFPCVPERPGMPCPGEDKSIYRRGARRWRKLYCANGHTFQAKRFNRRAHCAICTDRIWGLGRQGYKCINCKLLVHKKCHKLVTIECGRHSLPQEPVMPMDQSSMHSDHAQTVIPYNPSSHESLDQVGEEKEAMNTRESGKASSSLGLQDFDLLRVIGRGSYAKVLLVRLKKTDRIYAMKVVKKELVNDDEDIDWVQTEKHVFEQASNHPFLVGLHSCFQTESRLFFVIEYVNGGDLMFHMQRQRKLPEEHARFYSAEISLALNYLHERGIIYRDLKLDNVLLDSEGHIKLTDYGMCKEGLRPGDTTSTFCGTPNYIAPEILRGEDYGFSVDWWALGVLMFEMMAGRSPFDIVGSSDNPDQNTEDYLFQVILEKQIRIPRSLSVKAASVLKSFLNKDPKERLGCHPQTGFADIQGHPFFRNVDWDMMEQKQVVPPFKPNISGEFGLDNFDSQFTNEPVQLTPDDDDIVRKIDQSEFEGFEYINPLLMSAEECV
# [8] = biological target: T2, Megakaryocyte-associated tyrosine-protein kinase (Homo sapiens) (UniProt P42679); assay: Residual activity of MATK at 10 uM by microplate scintillation counting
# T2 sequence (whole entry): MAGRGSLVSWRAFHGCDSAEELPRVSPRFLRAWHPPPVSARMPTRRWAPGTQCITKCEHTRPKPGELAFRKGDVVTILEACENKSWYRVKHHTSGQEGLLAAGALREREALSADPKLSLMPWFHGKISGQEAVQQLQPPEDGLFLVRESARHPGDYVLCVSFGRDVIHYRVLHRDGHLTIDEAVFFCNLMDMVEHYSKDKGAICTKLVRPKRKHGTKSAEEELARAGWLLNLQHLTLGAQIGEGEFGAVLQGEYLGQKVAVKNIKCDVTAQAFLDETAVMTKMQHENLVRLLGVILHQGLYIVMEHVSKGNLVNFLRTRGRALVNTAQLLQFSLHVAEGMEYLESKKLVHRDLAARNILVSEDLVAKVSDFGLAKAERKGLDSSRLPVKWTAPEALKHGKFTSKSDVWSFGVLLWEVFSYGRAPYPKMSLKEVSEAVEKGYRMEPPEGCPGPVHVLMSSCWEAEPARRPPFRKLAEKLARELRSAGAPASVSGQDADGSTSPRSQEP
# [9] = biological target: T3, Serine/threonine-protein kinase D2 (Homo sapiens) (UniProt Q9BZL6); assay: Residual activity of PRKD2 at 0.1 uM by microplate scintillation counting
# T3 sequence (whole entry): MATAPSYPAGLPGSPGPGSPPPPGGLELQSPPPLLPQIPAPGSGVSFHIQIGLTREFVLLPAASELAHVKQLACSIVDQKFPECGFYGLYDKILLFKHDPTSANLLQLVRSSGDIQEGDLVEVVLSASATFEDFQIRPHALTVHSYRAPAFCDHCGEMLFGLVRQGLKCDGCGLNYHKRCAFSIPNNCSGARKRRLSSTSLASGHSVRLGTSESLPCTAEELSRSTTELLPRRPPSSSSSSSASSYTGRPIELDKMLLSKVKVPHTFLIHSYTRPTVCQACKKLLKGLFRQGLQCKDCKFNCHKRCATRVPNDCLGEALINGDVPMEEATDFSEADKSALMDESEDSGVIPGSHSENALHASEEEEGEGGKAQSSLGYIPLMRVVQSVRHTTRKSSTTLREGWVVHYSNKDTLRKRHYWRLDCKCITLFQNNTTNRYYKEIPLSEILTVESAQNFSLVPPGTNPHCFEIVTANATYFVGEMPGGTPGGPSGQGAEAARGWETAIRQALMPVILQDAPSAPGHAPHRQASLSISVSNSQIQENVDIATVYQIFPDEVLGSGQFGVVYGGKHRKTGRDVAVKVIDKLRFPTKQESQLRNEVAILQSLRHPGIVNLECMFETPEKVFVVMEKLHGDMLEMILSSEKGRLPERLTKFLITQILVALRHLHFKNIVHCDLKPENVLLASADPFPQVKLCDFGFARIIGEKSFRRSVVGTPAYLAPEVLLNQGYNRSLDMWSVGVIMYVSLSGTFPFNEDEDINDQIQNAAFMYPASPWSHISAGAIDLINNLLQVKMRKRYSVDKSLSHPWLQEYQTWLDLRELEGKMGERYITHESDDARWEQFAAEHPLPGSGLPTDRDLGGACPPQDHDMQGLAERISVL
# [10] = biological target: Receptor tyrosine-protein kinase erbB-4 (Homo sapiens) (UniProt Q15303); assay: Residual activity of ERBB4 at 10 uM by microplate scintillation counting
# Sequence of Receptor tyrosine-protein kinase erbB-4 (Homo sapiens) (Q15303 whole entry): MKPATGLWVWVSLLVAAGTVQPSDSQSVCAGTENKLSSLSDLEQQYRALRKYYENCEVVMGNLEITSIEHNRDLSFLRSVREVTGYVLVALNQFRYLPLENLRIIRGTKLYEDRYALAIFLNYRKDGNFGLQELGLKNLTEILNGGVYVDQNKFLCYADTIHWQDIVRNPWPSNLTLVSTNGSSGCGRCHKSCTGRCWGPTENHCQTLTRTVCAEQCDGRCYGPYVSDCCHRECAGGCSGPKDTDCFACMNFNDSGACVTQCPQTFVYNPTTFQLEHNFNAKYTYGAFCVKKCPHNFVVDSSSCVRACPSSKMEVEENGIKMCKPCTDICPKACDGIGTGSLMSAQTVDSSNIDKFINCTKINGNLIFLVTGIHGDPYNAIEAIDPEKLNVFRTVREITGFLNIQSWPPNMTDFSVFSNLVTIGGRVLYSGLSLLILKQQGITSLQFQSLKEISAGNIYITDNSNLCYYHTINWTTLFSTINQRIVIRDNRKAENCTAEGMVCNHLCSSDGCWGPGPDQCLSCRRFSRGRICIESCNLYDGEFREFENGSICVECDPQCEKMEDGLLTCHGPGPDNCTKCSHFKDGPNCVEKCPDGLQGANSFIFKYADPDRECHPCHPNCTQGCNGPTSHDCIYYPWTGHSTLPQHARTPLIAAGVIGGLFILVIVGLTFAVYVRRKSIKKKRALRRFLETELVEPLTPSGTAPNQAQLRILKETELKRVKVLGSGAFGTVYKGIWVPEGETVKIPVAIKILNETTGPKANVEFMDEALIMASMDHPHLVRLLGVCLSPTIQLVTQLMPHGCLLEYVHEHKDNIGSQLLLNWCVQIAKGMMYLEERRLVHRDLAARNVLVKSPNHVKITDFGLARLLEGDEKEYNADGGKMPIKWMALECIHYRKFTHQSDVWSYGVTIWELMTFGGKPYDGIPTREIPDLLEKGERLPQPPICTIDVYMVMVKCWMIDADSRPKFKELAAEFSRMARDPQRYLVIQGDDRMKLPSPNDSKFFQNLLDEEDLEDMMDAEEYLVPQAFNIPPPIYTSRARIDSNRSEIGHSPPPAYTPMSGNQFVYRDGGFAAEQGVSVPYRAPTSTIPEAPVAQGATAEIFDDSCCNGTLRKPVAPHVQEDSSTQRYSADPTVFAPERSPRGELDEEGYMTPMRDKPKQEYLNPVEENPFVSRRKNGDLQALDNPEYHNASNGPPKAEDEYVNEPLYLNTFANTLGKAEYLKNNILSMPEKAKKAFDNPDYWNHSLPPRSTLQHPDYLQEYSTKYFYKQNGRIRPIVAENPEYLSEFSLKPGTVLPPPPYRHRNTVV
# [11] = biological target: Ribosomal protein S6 kinase alpha-3 (Homo sapiens) (UniProt P51812); assay: Residual activity of RPS6KA3 at 0.1 uM by microplate scintillation counting
# Sequence of Ribosomal protein S6 kinase alpha-3 (Homo sapiens) (P51812 whole entry): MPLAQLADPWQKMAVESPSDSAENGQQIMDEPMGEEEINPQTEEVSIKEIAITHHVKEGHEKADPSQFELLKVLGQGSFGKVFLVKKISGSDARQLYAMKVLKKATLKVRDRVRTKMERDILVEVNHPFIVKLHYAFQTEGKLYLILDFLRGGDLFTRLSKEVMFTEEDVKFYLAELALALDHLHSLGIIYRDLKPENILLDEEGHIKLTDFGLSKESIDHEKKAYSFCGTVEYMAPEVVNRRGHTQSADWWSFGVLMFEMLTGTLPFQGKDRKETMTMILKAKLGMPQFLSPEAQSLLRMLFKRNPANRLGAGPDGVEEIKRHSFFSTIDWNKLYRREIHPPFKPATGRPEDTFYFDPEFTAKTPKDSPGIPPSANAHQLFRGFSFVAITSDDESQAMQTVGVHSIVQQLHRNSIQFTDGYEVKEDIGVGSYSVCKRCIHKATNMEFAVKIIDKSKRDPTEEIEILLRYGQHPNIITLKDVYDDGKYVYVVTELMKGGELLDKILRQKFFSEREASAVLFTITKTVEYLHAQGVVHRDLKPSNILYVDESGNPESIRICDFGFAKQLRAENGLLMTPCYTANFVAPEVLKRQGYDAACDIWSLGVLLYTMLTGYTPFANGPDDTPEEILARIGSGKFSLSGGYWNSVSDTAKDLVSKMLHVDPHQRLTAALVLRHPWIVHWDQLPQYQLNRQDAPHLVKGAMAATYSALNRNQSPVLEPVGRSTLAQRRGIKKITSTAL
# [12] = biological target: Protein kinase C alpha type (Homo sapiens) (UniProt P17252); assay: Residual activity of PKCalpha at 0.1 uM by microplate scintillation counting
# Sequence of Eukaryotic translation initiation factor 2-alpha kinase 1 (Homo sapiens) (Q9BQI3 whole entry): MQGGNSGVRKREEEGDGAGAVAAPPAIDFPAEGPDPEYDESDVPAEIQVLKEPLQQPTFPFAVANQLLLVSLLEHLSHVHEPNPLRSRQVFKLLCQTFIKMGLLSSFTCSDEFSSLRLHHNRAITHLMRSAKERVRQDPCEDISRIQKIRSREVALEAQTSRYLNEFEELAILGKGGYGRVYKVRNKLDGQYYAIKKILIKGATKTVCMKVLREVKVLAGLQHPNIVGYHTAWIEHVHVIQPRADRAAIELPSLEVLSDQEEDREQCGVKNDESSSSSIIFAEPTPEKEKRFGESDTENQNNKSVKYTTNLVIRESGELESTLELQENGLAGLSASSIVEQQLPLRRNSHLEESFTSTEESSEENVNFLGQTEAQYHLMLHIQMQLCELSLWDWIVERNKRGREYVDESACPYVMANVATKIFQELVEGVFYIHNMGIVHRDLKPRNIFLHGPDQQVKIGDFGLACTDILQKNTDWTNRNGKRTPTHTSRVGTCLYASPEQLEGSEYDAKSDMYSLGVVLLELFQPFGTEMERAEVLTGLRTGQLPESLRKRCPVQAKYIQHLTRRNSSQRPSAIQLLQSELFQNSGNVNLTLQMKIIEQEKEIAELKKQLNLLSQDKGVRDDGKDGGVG
Structure (SMILES),residual activity [1],residual activity [2],residual activity [3],residual activity [4],residual activity [5],residual activity [6],residual activity [7],residual activity [8],residual activity [9],residual activity [10],residual activity [11],residual activity [12]
COc1cc2c(Oc3ccc(-c4nc5ccccc5s4)cc3)ncnc2cc1OCCCN1CCN(C)CC1,127%,73%,83%,103%,124%,123%,116%,377%,82%,118%,93%,108%
COc1cc2c(Oc3ccc(-c4nc5ccccc5s4)cc3)ncnc2cc1OCCCN1CCCC1,112%,86%,82%,93%,102%,143%,103%,267%,89%,116%,94%,137%
COc1cc2c(Oc3ccc(-c4nc5ccccc5s4)cc3F)ncnc2cc1OCCCN1CCN(C)CC1,57%,80%,81%,93%,103%,127%,102%,215%,95%,54%,95%,100%
